Source: ChEMBL document CHEMBL4342475, “Structure-Bioactivity Relationships of Lapatinib Derived Analogs against Schistosoma mansoni” (ACS Med Chem Lett, 2020)
In brackets after ≈: the same amount, converted by molar mass. Activity calls are given as the source filed them. The calls are words filed in the database; no cut-off is given here.

Assays:
[1] = Aqueous solubility of compound incubated for 24 hrs by LC-MS/MS analysis; assay type: physicochemical; conditions: buffer, 24 h
[2] = test system: Schistosoma mansoni; assay: Antiparasitic activity against Schistosoma mansoni infected in Hamster assessed as severity score at 10 uM incubated for 48 hrs; assay type: functional, organism-based
[3] = Metabolic stability in human liver microsomes assessed as intrinsic clearance by LC-MS/MS analysis; assay type: ADME, Microsome
[4] = test system: Schistosoma mansoni; assay: Antiparasitic activity against Schistosoma mansoni infected in Hamster assessed as severity score at 10 uM incubated for 5 hrs; assay type: functional, organism-based
[5] = Protein binding in human plasma at 1 uM by LC-MS/MS analysis; assay type: ADME, cell-free
[6] = test system: Schistosoma mansoni; assay: Antiparasitic activity against Schistosoma mansoni infected in Hamster assessed as severity score at 10 uM incubated for 1 hr; assay type: functional, organism-based
[7] = Cytotoxicity against human HepG2 cells assessed as reduction in cell viability 48 hrs by MTT assay; assay type: cell-based; conditions: read-out: TC50
[8] = test system: Schistosoma mansoni; assay: Antiparasitic activity against Schistosoma mansoni infected in Hamster assessed as severity score at 10 uM incubated for 24 hrs; assay type: functional, organism-based

## Cc1cc2c(Nc3cnccn3)ccnc2cc1-c1cnc(N2CCCNCC2)nc1
[1]
  solubility: 1000 µM (≈ 413 µg/mL)
[2]
  Activity: inactive
[3]
  intrinsic clearance: 13 µL/min/mg
[4]
  Activity: inactive
[5]
  PPB: 70%
[6]
  Activity: inactive
[7]
  CC50 at 48 h: 13 µM
[8]
  Activity: inactive
